Read-outs that look alike come from different tables or passages of the source.
Target: T1, Androgen Receptor (Homo sapiens, UniProt P10275)
T1 construct: endogenous in cells; host or cells: VCaP cells
T1 sequence (P10275 1-920): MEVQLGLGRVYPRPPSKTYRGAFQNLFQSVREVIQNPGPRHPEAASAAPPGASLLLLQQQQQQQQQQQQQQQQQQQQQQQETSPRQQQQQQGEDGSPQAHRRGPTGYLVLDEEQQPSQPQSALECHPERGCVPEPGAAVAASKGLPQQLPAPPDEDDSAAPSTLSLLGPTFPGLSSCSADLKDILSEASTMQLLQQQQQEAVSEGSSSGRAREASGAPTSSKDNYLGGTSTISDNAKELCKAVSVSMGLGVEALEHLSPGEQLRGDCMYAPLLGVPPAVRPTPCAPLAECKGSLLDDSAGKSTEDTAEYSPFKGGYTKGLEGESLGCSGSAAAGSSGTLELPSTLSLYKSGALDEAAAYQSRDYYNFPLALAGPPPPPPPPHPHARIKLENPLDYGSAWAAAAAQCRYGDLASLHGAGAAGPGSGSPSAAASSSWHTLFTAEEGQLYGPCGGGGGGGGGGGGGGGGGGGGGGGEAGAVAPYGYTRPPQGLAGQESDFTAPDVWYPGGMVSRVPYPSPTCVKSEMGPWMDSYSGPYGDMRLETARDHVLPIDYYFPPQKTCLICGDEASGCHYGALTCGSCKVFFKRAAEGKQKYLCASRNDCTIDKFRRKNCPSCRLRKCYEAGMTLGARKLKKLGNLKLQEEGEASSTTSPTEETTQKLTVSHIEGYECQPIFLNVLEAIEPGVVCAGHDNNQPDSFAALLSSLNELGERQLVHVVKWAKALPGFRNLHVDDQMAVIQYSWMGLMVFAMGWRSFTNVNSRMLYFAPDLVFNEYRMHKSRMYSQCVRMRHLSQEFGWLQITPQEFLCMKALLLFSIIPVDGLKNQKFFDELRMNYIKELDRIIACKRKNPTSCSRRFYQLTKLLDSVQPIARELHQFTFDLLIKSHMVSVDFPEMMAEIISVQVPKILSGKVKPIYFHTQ
Experiment: Androgen Receptor ELISA assay (PathScan AR ELISA) in VCaP cells: AR degradation, Dmax and DC50
Assay type: cell-based
Details: Table 36; for DC50: read-out: VCaP DC50; for Dmax: VCaP
Method in brief: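 After 24 h exposure of VCaP cells (charcoal-stripped serum, 0.1 nM R1881 agonist, 0.1% DMSO) to seven half-log compound concentrations, residual AR in lysates was measured by PathScan ELISA (TMB absorbance, 450 nm). Cells were plated at 30,000/well and grown at least 3 days beforehand.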

[1] = VCaP cells, read-out: VCaP Dmax (%)
[2] = read-out: VCaP Dmax (%), VCaP cells

Row | Compound | DC50 (VCaP cells) [nM] | Dmax [1] [%] | Dmax [2] [%]
1 | Cc1ncsc1-c1ccc([C@H](C)NC(=O)[C@@H]2C[C@@H](O)CN2C(=O)[C@@H](NC(=O)CCCCc2ccc(C(=O)N[C@H]3C(C)(C)[C@H](Oc4ccc(C#N)c(Cl)c4)C3(C)C)cc2)C(C)(C)C)cc1 [Example 755, (2S,4R)-1-((S)-2-(5-(4-(((1r,3S)-3-(3-chloro-4-cyanophenoxy)-2,2,4,4-tetramethylcyclobutyl)carbamoyl)phenyl)pentan-amido)-3,3-dimethylbutanoyl)-4-hydroxy-N-((S)-1-(4-(4-methylthiazol-5-yl)phenyl)ethyl)pyrrolidine-2-carboxamide] | > 501 | 26 to 50 | 
2 | Cc1ncsc1-c1ccc([C@H](C)NC(=O)[C@@H]2C[C@@H](O)CN2C(=O)[C@@H](NC(=O)COCCCCOc2ccc(-c3ccc(C(=O)N[C@H]4C(C)(C)[C@H](Oc5ccc(C#N)c(Cl)c5)C4(C)C)cc3)cc2)C(C)(C)C)cc1 [Example 630, (2S,4R)-1-((S)-2-(2-(4-((4′-(((1r,3r)-3-(3-chloro-4-cyanophenoxy)-2,2,4,4-tetramethylcyclobutyl)carbamoyl)-[1,1′-biphenyl]-4-yl)oxy)butoxy)acetamido)-3,3-dimethylbutanoyl)-4-hydroxy-N-((S)-1-(4-(4-methylthiazol-5-yl)phenyl)ethyl)pyrrolidine-2-carboxamide] | < 50 |  | > 71
3 | Cc1ncsc1-c1ccc([C@H](C)NC(=O)[C@@H]2CC(O)CN2C(=O)[C@H](C(C)C)n2nccc2OCCCCCNc2ccc(C(=O)N[C@H]3C(C)(C)[C@H](Oc4ccc(C#N)c(Cl)c4)C3(C)C)cc2)cc1 (stereo partly drawn) [Example 624, (2S,4R)-1-((S)-2-(5-((5-((4-(((1r,3r)-3-(3-chloro-4-cyanophenoxy)-2,2,4,4-tetramethylcyclobutyl)carbamoyl)phenyl)amino)pentyl)oxy)-1H-pyrazol-1-yl)-3-methylbutanoyl)-4-hydroxy-N-((S)-1-(4-(4-methylthiazol-5-yl)phenyl)ethyl)pyrrolidine-2-carboxamide] | > 501 | < 25 | 

The next lines start with results.

Row | DC50 (VCaP cells) [nM] | Dmax [1] [%] | Compound | Dmax [2] [%]
4 | > 501 | 26 to 50 | Cc1nc(-c2ccn(C[C@H](C)NC(=O)c3cc(COCCCN4CCN(CC(=O)N[C@H](C(=O)N5C[C@H](O)C[C@H]5C(=O)N[C@@H](C)c5ccc(-c6scnc6C)cc5)C(C)(C)C)CC4)[nH]n3)n2)ccc1C#N [Example 767, N-((S)-1-(3-(5-cyano-6-methylpyridin-2-yl)-1H-pyrazol-1-yl)propan-2-yl)-5-((3-(4-(2-(((S)-1-((2S,4R)-4-hydroxy-2-(((S)-1-(4-(4-methylthiazol-5-yl)phenyl)ethyl)carbam-oyl)pyrrolidin-1-yl)-3,3-dimethyl-1-oxobutan-2-yl)amino)-2-oxoethyl)piperazin-1-yl)propoxy)methyl)-1H-pyrazole-3-carboxamide] | 
5 | < 50 |  | Cc1ncsc1-c1ccc([C@H](C)NC(=O)[C@@H]2C[C@@H](O)CN2C(=O)[C@@H](NC(=O)CN2CCN(CCCN3CCN(c4ccc(C(=O)N[C@H]5C(C)(C)[C@H](Oc6ccc(C#N)c(C#N)c6)C5(C)C)cn4)CC3)CC2)C(C)(C)C)cc1 [Example 715, N-((1r,3r)-3-(3,4-dicyanophenoxy)-2,2,4,4-tetramethylcyclobutyl)-6-(4-(3-(4-(2-(((S)-1-((2S,4R)-4-hydroxy-2-(((S)-1-(4-(4-methylthiazol-5-yl)phenyl)ethyl)carbam-oyl)pyrrolidin-1-yl)-3,3-dimethyl-1-oxobutan-2-yl)amino)-2-oxoethyl)piperazin-1-yl)propyl)piperazin-1-yl)nicotinamide] | 51 to 70
